How the values were obtained:
Assay in all cases: relative viability (nuclei count vs DMSO), 5 days (fraction); higher = more cells survive
[1] = tested on: CAL-12T
How it was run: (§1)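 Lung cancer cell lines, seeded in 1536-well plates, were treated the following day by pin tool with a single drug or with five library-drug doses (not always all listed) in √10 steps on top of a fixed anchor-drug dose. Cells were fixed and nuclei stained in one step after 5 days, and nuclei were counted. Relative viability is the nuclei count for treated wells divided by that for vehicle wells, reported as medians of duplicate plates.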

[2] = tested on: NCI-H2009
How it was run: as §1

[3] = tested on: PC-14
How it was run: as §1

[4] = tested on: HCC-44
How it was run: as §1

[5] = tested on: LCLC-97TM1
How it was run: as §1

[6] = tested on: NCI-H727
How it was run: as §1

[7] = tested on: NCI-H2170
How it was run: as §1

[8] = tested on: HCC-366
How it was run: as §1

[9] = tested on: COR-L 105
How it was run: as §1

[10] = tested on: HCC-15
How it was run: as §1

[11] = tested on: NCI-H2126
How it was run: as §1

[12] = tested on: NCI-H1993
How it was run: as §1

[13] = tested on: NCI-H2087
How it was run: as §1

[14] = tested on: HCC-827
How it was run: as §1

[15] = tested on: HOP-62
How it was run: as §1

[16] = tested on: PC-3 [JPC-3]
How it was run: as §1

[17] = tested on: SK-MES-1
How it was run: as §1

[18] = tested on: BEN
How it was run: as §1

[19] = tested on: LC-2-ad
How it was run: as §1

[20] = tested on: HARA
How it was run: as §1

[21] = tested on: COR-L23
How it was run: as §1

[22] = tested on: LU99A
How it was run: as §1

[23] = tested on: LXF-289
How it was run: as §1

Work on `Cc1cnc(-c2cnc(NCCNc3ccc(C#N)cn3)nc2-c2ccc(Cl)cc2Cl)[nH]1` + CC(=O)Nc1cccc(-n2c(=O)n(C3CC3)c(=O)c3c(Nc4ccc(I)cc4F)n(C)c(=O)c(C)c32)c1 [Trametinib] (partner 0.02 µM) yielded a relative viability ([1]; first compound 0.08 µM) of 0.357, a relative viability ([1]; first compound 0.253 µM) of 0.306 and a relative viability ([1]; first compound 0.8 µM) of 0.333. For the same compound, the relative viability ([1]; first compound 2.53 µM) was 0.348, the relative viability ([2]; first compound 0.08 µM) was 0.372 and the relative viability ([2]; first compound 0.253 µM) was 0.273. The relative viability ([2]; first compound 0.8 µM) was 0.293, the relative viability ([2]; first compound 2.53 µM) was 0.384 and the relative viability ([3]; first compound 0.08 µM) was 0.961. It also gave a relative viability ([3]; first compound 0.253 µM) of 0.713, a relative viability ([3]; first compound 0.8 µM) of 0.904 and a relative viability ([3]; first compound 2.53 µM) of 0.825. For the same compound, the relative viability ([4]; first compound 0.08 µM) was 1.13, the relative viability ([4]; first compound 0.253 µM) was 1.02 and the relative viability ([4]; first compound 0.8 µM) was 1.01. For the same compound, the relative viability ([4]; first compound 2.53 µM) was 1.04, the relative viability ([5]; first compound 0.08 µM) was 0.201 and the relative viability ([5]; first compound 0.253 µM) was 0.193. The relative viability ([5]; first compound 0.8 µM) was 0.18, the relative viability ([5]; first compound 2.53 µM) was 0.214 and the relative viability ([6]; first compound 0.08 µM) was 0.384. The relative viability ([6]; first compound 0.253 µM) was 0.375, the relative viability ([6]; first compound 0.8 µM) was 0.404 and the relative viability ([6]; first compound 2.53 µM) was 0.393. For the same compound, the relative viability ([7]; first compound 0.08 µM) was 1.02, the relative viability ([7]; first compound 0.8 µM) was 0.929 and the relative viability ([7]; first compound 2.53 µM) was 0.788. The relative viability ([8]; first compound 0.08 µM) was 0.397, the relative viability ([8]; first compound 0.253 µM) was 0.308 and the relative viability ([8]; first compound 0.8 µM) was 0.292. For the same compound, the relative viability ([8]; first compound 2.53 µM) was 0.326, the relative viability ([9]; first compound 0.08 µM) was 0.481 and the relative viability ([9]; first compound 0.253 µM) was 0.383. The relative viability ([9]; first compound 0.8 µM) was 0.324, the relative viability ([9]; first compound 2.53 µM) was 0.415 and the relative viability ([10]; first compound 0.08 µM) was 0.449. The relative viability ([10]; first compound 0.253 µM) was 0.391, the relative viability ([10]; first compound 0.8 µM) was 0.383 and the relative viability ([10]; first compound 2.53 µM) was 0.422. For the same compound, the relative viability ([11]; first compound 0.08 µM) was 0.58, the relative viability ([11]; first compound 0.253 µM) was 0.546 and the relative viability ([11]; first compound 0.8 µM) was 0.564. For the same compound, the relative viability ([11]; first compound 2.53 µM) was 0.546, the relative viability ([12]; first compound 0.08 µM) was 0.506 and the relative viability ([12]; first compound 0.253 µM) was 0.536. For the same compound, the relative viability ([12]; first compound 0.8 µM) was 0.454, the relative viability ([12]; first compound 2.53 µM) was 0.52 and the relative viability ([13]; first compound 0.08 µM) was 0.203. It also gave a relative viability ([13]; first compound 0.8 µM) of 0.214, a relative viability ([13]; first compound 2.53 µM) of 0.177 and a relative viability ([14]; first compound 0.08 µM) of 0.597. For the same compound, the relative viability ([14]; first compound 0.253 µM) was 0.473, the relative viability ([14]; first compound 0.8 µM) was 0.522 and the relative viability ([14]; first compound 2.53 µM) was 0.434. It also gave a relative viability ([15]; first compound 0.08 µM) of 0.401, a relative viability ([15]; first compound 0.253 µM) of 0.375 and a relative viability ([15]; first compound 0.8 µM) of 0.426. It also gave a relative viability ([15]; first compound 2.53 µM) of 0.426, a relative viability ([16]; first compound 0.08 µM) of 0.75 and a relative viability ([16]; first compound 0.253 µM) of 0.646. For the same compound, the relative viability ([16]; first compound 0.8 µM) was 0.774, the relative viability ([16]; first compound 2.53 µM) was 0.703 and the relative viability ([17]; first compound 0.08 µM) was 0.548. For the same compound, the relative viability ([17]; first compound 0.253 µM) was 0.54, the relative viability ([17]; first compound 0.8 µM) was 0.676 and the relative viability ([17]; first compound 2.53 µM) was 0.619. The relative viability ([18]; first compound 0.08 µM) was 1.25, the relative viability ([18]; first compound 0.253 µM) was 0.879 and the relative viability ([18]; first compound 0.8 µM) was 1.04. It also gave a relative viability ([18]; first compound 2.53 µM) of 1.42, a relative viability ([19]; first compound 0.08 µM) of 0.998 and a relative viability ([19]; first compound 0.8 µM) of 0.953. For the same compound, the relative viability ([19]; first compound 2.53 µM) was 0.863, the relative viability ([20]; first compound 0.08 µM) was 0.746 and the relative viability ([20]; first compound 0.253 µM) was 0.68. It also gave a relative viability ([20]; first compound 0.8 µM) of 0.623, a relative viability ([20]; first compound 2.53 µM) of 0.708 and a relative viability ([21]; first compound 0.08 µM) of 0.763. For the same compound, the relative viability ([21]; first compound 0.253 µM) was 0.565, the relative viability ([21]; first compound 0.8 µM) was 0.642 and the relative viability ([21]; first compound 2.53 µM) was 0.585. It also gave a relative viability ([22]; first compound 0.08 µM) of 0.549, a relative viability ([22]; first compound 0.253 µM) of 0.556 and a relative viability ([22]; first compound 0.8 µM) of 0.53. It also gave a relative viability ([22]; first compound 2.53 µM) of 0.534, a relative viability ([23]; first compound 0.08 µM) of 0.704 and a relative viability ([23]; first compound 0.253 µM) of 0.6. It also gave a relative viability ([23]; first compound 0.8 µM) of 0.674 and a relative viability ([23]; first compound 2.53 µM) of 0.69.

— the supplement of paper PMC10307832
